Measured values as given in patent publication US8604048B2, “Pyridocarbazole type compounds and applications thereof” (Centre National de la Recherche Scientifique, priority 2009, dated 2013).

Legend:
[1] = test system: LIMK1 activity in HeLa cells; experiment: Cellular LIMK1 activity assay (Ser3-cofilin phosphorylation, western blot); assay type: cell-based, Human; conditions: for Inhibition of Ser3-cofilin phosphorylation in HeLa cells: 2 h, indicated concentrations
Protocol: HeLa cells were treated by compounds (or equivalent amount of DMSO as control) at indicated concentrations and time. Whole cell extracts were prepared using RIPA buffer (50 mM Tris-HCl pH=7.4, 150 mM NaCl, 1% NP-40, 0.5% sodium deoxycholate, 1% SDS, 1 mM EGTA, 1 mM EDTA, 5% glycerol, 1 mM DTT) supplemented with protease inhibitors (Sigma, P8340) and phosphatase inhibitors (Sigma, P5726). About thirty micrograms of proteins were loaded and migrated through a 12% SDS-PAGE. After electro-transfer, the nitrocellulose membrane was saturated with PBS, 0.1% Tween® 20, 5% Bovin Serum Albumin. Amount and phosphorylation status of cofilin were estimated using the polyclonal antibodies anti-cofilin (Cytoskeleton, #ACFLO2) and anti-phosphocofilin (Ser3) (Cell Signaling, #3311). Goat anti-rabbit IgG-HorseRadish Peroxidase conjugated (Biosource, #ALI0404) was used as secondary antibody. Detection was performed using ECL plus western blotting detection system (GE Healthcare).
HeLa cells were treated by 25 μM Compound 1 (H06) for 2 h (lane 2). Culture medium was then discarded and fresh medium (RPMI) was added. At different times after RPMI addition (lane 3, 30 minutes; lane 4, 1 hour; lane 5, 1.5 hour; lane 6, 2 hours; lane 7, 4 hours), amount and phosphorylation status of cofilin were determined as described in Example 2. The lane 1 corresponds to time “0”, i.e. a cell extract of cells that have not been treated with Compound 1.
HeLa cells were treated by indicated concentrations of Compound 1 (or ellipticine as negative control) for 2 h.
Amount and phosphorylation status of cofilin were determined as described in Example 2. In vitro phosphorylated cofilin (left) was used as control.
HeLa cells were treated by 25 μM of Compound 1 for indicated time. Amount and phosphorylation status of cofilin were determined as described in Example 2.

[2] = test system: actin network of HeLa cells; experiment: Stability of the actin network to a depolymerization induced by latrunculin B; assay type: cell-based, Human
Protocol: 7. a step of analysis of the effect of the compound to be tested on the actin network, via incubation of HeLa cells with the compound to be tested. […] When the actin network is stabilized, the latrunculin-induced depolymerization of the actin network is limited.
The cells are grown on glass coverslips and incubated as for the tubulin staining. After elimination of the medium, the cells are washed with warm PBS then fixed, by addition of a solution of PBS/3.7% formaldehyde for 30 minutes at 37° C. The cells are washed with PBS then permeabilized with a solution of PBS/0.2% Triton X100 for 15 minutes at room temperature. After another washing with PBS, the cells are incubated with a solution of PBS/1% BSA for 30 minutes at room temperature. The cells are then incubated with phalloidin (0.165 μM final concentration) labelled with Alexa Fluor® 488 (Molecular Probes, Invitrogen) for 20 minutes at room temperature. The cells are washed a final time with PBS then dehydrated with pure ethanol. Finally, the cells are fixed to slides using a Fluorsave™ mounting solution.
8) Test for the Action on the Actin Cytoskeleton: Protocol for Evaluating, in Cells, the Stability of the Actin Network to a Depolymerization Induced by Latrunculin B
3 days before the experiment, glass coverslips are deposited under sterile conditions in 24-well microplates. In each well, HeLa cells (15 000 cells per well) in the exponential growth phase are seeded in 500 μl of RPMI medium.
PBS (phosphate buffered saline, ref. P4417, Sigma), PBS/1% BSA (bovine serum albumin, Ref. A3059, Sigma), aliquots of 15 ml, stored at −20° C.; PBS/0.2% Triton X100 (Ref. T8787, Sigma); PBS/0.01% Tween® 20 (Ref. P9916, Sigma); PBS/0.3% BSA/0.02% NaN3 (Ref. for the NaN3: 6688, Merck), aliquots of 15 ml stored at −20° C. Phalloidin A488, (Ref. A12379, Invitrogen). L4: rabbit anti-detyrosinated-tubulin polyclonal antibody (cf. Fonrose et al., Cancer Res., […], 67:3371-3378). Anti-rabbit antibody coupled to Cyanine 3 (Ref. 111.165.144, Jackson Laboratories). […]

Row | Structure (SMILES) | Inhibition of Ser3-cofilin phosphorylation in HeLa cells [1] | Effect on the stabilization of actin microfilaments ([2]; general statement) | Reversibility of inhibition of Ser3-cofilin phosphorylation in HeLa cells ([1]; 25 μM for 2 h, then replaced by RPMI medium) | Treatment time after which the inhibitory effect on cofilin phosphorylation is detected ([1]; HeLa, 25 μM) [min] | Protection of the actin network from depolymerization by latrunculin B ([2]; HeLa cells, confocal microscope)
1 | Cc1c2ccncc2c(C)c2c1[nH]c1ccccc12 [ellipticine] | does not avoid the phosphorylation of cofilin | does not have any effect | – | – | –
2 | Cc1c2cc[nH]c(=O)c2c(C)c2c1[nH]c1ccc(OC(=O)c3ccccc3)cc12 [Compound 1, 9-benzoyloxy-5,11-dimethyl-2H,6H-pyrido[4,3-b]carbazol-1-one] | clearly inhibits the formation of phospho-cofilin, in a dose-dependent manner | – | phospho-cofilin is synthesized again | 30 | protects the actin network
